Results published in patent publication US9416128B2, “Fused heterocyclic compounds as ion channel modulators” (Gilead Sciences, Inc., priority 2013, dated 2016).

Tests used:
hNaV1.2 (SCN2A) = biological target: T1, hNaV1.2 (SCN2A) (Homo sapiens, UniProt Q99250); assay: Use-dependent inhibition of the CNS NaV1.2 sodium channel; format: cell-based; conditions: % inhibition; for inhibition at 1 µM / inhibition at 10 µM: HEK-293, 25 Hz; for inhibition at 1 µM: read-out: Nav1.2 UDB 25 Hz 1 uM; for inhibition at 10 µM: read-out: Nav1.2 UDB 25 Hz 10 uM
T1 construct: expressed in transfected cells
T1 sequence (Q99250 whole entry): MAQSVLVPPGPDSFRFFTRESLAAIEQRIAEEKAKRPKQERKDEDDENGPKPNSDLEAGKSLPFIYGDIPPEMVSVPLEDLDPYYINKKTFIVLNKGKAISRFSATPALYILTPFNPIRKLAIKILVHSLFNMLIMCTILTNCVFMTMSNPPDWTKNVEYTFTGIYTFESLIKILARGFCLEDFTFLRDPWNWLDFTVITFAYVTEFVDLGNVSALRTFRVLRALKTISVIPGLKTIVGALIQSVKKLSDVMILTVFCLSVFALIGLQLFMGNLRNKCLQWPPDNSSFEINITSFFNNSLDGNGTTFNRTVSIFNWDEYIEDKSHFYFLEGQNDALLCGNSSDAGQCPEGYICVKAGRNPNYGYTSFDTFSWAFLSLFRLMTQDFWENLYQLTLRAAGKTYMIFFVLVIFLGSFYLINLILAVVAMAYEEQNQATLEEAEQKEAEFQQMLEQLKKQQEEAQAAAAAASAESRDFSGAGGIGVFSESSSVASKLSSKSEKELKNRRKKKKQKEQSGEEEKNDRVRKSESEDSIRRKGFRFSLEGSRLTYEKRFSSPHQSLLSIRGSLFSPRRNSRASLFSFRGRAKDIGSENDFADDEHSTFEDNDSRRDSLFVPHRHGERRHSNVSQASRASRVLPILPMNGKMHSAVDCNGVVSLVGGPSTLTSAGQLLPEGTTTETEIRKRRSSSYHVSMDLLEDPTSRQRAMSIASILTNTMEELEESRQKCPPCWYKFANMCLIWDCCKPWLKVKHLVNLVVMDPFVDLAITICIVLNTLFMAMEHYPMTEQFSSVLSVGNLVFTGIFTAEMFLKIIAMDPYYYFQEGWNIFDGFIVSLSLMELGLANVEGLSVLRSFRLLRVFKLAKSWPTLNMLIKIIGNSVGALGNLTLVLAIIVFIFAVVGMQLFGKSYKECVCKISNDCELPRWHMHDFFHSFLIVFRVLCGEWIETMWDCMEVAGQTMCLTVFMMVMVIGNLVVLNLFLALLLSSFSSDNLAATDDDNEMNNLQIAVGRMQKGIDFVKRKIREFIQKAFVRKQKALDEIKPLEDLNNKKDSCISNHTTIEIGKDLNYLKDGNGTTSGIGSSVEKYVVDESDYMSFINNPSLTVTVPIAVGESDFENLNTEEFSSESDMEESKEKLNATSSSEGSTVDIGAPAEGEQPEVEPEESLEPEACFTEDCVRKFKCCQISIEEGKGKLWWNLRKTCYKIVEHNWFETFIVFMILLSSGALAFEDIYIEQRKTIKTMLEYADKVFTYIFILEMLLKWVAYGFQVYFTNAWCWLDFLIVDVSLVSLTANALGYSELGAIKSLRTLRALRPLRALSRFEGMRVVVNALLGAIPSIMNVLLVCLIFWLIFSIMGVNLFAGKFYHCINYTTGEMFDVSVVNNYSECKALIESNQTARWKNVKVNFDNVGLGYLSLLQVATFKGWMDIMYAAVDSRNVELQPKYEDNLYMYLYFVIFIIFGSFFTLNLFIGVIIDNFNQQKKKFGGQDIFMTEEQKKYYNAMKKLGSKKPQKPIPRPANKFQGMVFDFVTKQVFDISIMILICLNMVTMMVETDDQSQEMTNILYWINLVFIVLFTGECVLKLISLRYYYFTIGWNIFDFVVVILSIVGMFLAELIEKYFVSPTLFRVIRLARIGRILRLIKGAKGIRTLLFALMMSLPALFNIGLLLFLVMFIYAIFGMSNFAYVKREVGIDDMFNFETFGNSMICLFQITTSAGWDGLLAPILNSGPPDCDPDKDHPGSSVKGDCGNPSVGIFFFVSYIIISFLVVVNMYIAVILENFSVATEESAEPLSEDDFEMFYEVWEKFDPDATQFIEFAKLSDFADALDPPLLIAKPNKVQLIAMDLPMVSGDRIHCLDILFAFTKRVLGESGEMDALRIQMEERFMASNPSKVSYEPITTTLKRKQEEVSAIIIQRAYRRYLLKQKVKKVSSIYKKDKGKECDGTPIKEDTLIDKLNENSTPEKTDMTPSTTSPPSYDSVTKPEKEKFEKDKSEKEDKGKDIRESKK
T1 sequence (Q07699 19-218 partner): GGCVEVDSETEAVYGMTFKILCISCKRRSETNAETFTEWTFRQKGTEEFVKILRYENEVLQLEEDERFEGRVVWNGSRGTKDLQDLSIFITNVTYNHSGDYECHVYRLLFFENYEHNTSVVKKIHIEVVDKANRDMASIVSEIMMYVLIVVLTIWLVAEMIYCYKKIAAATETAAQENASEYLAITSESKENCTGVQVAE
T1 sequence (O60939 30-215 partner): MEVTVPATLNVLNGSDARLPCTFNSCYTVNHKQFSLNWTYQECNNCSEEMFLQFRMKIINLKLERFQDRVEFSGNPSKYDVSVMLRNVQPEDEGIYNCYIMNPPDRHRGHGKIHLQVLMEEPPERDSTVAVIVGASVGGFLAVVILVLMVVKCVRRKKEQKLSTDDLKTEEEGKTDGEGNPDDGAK
Description: HEK-293 cells stably expressing wild-type (WT) hNaV1.2 (SCN2A NCBI # NM_021007.2, SCN1B NCBI # NM_001037.4, SCN2B NCBI # NM_004588.2) were used to record INa. Cells are maintained with standard tissue culture procedures and stable channel expression is maintained with 800 ug/mL G418 and 3 ug/mL Puromycin in the culture medium. Unless otherwise noted, all reagents are purchased from Sigma-Aldrich (St Louis, Mo., U.S.A.).
Assays measuring Use-Dependent Block (UDB) of NaV1.2 are performed on an automated electrophysiology platform, QPatch 16X or QPatch HT (Sophion Bioscience, Copenhagen, Denmark), using the whole cell patch clamp technique to measure currents through the cell membrane. Series resistance compensation is set to 100% and series resistance and whole-cell compensation are performed automatically. Currents stored in the Sophion Bioscience Oracle database (Sophion Bioscience, Copenhagen, Denmark). Analysis is performed using QPatch Assay software and data are compiled in Excel 2010 (Microsoft, Seattle, Wash., U.S.A.). The internal (pipette) solution consists of (in mM) 105 CsF, 10 NaF, 20 CsCl, 2 EGTA, 10 HEPES, 10 Dextrose with a pH of 7.35 and osmolarity of 300 mOsmol/kg. The external (bath) solution contains in (mM): 145 NaCl, 4 KCl, 1.8 CaCl2, 1 MgCl2, 10 dextrose, 10 HEPES, with a pH of 7.35 and osmolarity of 310 mOsmol/kg. Experiments are carried out at 23-25° C.
Compound stocks are routinely made by the Gilead Sample Bank in vials to 10 mM in dimethyl sulfoxide (DMSO). In some cases, when compounds are not soluble in DMSO, they are made in 100% ethanol. Stocks are sonicated as necessary. […]
Cells are allowed to stabilize for 10 min after establishment of the whole-cell configuration before current is measured. The test compound is applied 2 times at 60 second intervals. After the second compound addition, a 200 second wait period was imposed to allow for equilibration. Leak currents are subtracted by using an online P/4 procedure and all currents are low-pass Bessel filtered at 5 kHz and digitized at […].
Results are presented as mean percentage inhibition.
Use-dependent block of NaV1.2 peak current is measured during pulse number 20 of a voltage pulse train (0 mV, 20 ms, 20 pulses, 25 Hz) from a holding potential of −120 mV.
Currents are normalized to the peak current recorded in response to the first pulse in each frequency train. The voltage protocol for UDB was performed in the absence and presence of compound and percentage inhibition was calculated with respect to the compound free condition.
Data analysis is performed using QPatch Assay Software 4.0, and Excel 2002 (Microsoft, Seattle, Wash., U.S.A.).

[1] = biological target: wild-type human cardiac sodium channel, hNaV 1.5 (Late INa) (Homo sapiens, UniProt Q14524); assay: Late INa screening assay (whole cell patch clamp, QPatch, Tefluthrin-induced late current); format: cell-based; conditions: HEK293 hNaV1.5, 10 μM Tefluthrin; for inhibition at 1 µM: HEK293, % inhibition (percent block of late INa) at 1 uM, read-out: Nav1.5 Late INa 1 uM
wild-type human cardiac sodium channel, hNaV 1.5 (Late INa), sequence (Q14524 whole entry): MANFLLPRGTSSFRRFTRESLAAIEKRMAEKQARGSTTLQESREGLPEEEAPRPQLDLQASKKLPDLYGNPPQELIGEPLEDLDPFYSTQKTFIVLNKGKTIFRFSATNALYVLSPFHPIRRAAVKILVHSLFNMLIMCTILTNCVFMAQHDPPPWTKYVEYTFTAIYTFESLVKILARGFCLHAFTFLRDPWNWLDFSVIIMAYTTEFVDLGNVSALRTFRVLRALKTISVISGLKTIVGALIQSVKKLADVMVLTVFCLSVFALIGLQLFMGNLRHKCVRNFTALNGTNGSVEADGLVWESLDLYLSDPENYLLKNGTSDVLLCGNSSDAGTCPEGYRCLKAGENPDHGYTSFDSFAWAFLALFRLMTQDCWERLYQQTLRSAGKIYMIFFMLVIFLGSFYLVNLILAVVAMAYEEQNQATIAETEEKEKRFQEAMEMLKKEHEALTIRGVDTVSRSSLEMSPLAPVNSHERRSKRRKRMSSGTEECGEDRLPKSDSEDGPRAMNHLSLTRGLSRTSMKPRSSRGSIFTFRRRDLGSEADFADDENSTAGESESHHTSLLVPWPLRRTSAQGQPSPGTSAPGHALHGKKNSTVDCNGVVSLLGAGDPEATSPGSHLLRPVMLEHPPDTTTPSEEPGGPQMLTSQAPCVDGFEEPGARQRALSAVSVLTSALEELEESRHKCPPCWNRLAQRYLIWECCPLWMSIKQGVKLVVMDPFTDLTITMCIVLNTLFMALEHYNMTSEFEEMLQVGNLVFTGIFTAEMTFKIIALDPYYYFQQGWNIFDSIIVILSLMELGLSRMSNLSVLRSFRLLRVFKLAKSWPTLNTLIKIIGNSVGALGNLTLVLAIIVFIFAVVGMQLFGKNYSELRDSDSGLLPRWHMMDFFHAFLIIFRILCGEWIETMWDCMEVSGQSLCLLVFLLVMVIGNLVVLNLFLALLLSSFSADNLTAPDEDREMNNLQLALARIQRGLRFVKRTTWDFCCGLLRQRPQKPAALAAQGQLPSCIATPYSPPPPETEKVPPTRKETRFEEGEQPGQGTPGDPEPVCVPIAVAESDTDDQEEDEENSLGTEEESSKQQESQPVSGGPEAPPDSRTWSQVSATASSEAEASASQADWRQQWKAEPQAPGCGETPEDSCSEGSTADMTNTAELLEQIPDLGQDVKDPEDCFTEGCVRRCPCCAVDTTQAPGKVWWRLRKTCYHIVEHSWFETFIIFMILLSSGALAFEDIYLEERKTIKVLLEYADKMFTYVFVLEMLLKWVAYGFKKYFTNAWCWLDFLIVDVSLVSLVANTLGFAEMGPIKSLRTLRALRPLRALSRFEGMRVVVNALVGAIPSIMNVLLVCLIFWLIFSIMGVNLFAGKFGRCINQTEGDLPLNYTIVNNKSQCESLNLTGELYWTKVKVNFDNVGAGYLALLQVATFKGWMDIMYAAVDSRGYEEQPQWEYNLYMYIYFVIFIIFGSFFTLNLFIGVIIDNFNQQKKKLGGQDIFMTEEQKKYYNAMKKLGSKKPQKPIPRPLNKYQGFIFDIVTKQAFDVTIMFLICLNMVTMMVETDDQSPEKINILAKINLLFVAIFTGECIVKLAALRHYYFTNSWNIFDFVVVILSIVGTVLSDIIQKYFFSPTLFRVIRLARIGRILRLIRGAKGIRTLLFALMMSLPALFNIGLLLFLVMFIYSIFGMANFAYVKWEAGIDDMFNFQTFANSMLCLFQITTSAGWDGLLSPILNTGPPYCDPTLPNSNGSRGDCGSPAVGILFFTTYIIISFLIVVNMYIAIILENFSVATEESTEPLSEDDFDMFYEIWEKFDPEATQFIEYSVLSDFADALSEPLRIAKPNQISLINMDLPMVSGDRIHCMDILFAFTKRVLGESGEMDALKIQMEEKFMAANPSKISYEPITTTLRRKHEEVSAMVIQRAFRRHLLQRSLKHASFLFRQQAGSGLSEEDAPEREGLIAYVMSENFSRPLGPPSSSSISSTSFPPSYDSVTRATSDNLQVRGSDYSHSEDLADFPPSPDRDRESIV
Description: The cardiac late sodium current (Late INa) and peak sodium current (Peak INa) assays are performed on an automated electrophysiology platform, QPatch 16X or QPatch HT (Sophion Bioscience, Copenhagen, Denmark) using the whole cell patch clamp technique to measure currents through the cell membrane. The assay uses an HEK293 (human embryonic kidney) cell line heterologously expressing the wild-type human cardiac sodium channel, hNaV 1.5, purchased from Millipore (Billerica, Mass.). No beta subunits were coexpressed with the Na channel alpha subunit. Cells are maintained with standard tissue culture procedures and stable channel expression is maintained with 400 μg/mL Geneticin in the culture medium. Experiments are carried out at 23-25° C.
For both the Late INa and Peak INa assays, series resistance compensation is set to 100% and series resistance and whole-cell compensation are performed automatically. Currents are digitized at 25 kHz and low-pass filtered at 5 kHz and stored in the Sophion Bioscience Oracle database (Sophion Bioscience, Copenhagen, Denmark). Analysis is performed using QPatch Assay software and data are compiled in Excel 2010 (Microsoft, Seattle, Wash., U.S.A.).
Compound stocks are routinely made by the Gilead Sample Bank in vials to 10 mM in dimethyl sulfoxide (DMSO). In some cases, when compounds are not soluble in DMSO, they are made in 100% ethanol. Stocks are sonicated as necessary. The extracellular solution for screening Late INa is composed of: 140 mM NaCl, 4 mM KCl, 1.8 mM CaCl2, 1 mM MgCl2, 10 mM HEPES and 10 mM Dextrose with pH adjusted to 7.35 using NaOH. The intracellular solution contains: 105 mM CsF, 20 mM CsCl, 10 NaF, 2 mM EGTA, 10 mM HEPES and 10 mM Dextrose with pH adjusted to 7.35 with CsOH. Compounds are diluted in extracellular solution using a MicroLab Nimbus (Hamilton Robotics, Reno, Nev.) to between 0.3 and 3 μM in glass vials and transferred to glass well plates before robotic addition to the cells. The 0 mM Na extracellular solution (0Na-ECF) used at the end of each experiment for the Late INa and Peak INa assays to measure baseline current contains: 140 Choline-Cl; 4 mM KCl, 1.8 mM CaCl2; 1 mM MgCl2; 10 mM HEPES and 10 mM Dextrose with pH was adjusted to 7.35 with CsOH.
For the Late INa assay, sodium channels are activated every 10 seconds (0.1 Hz) by depolarizing the cell membrane to −20 mV for 250 milliseconds (ms) from a holding potential of −120 mV.
Compounds were tested to determine their activity in blocking the late sodium current. Late INa was generated by adding 10 μM Tefluthrin (pyrethroid) to the extracellular solution. For the purposes of the screening, Late INa is defined as the mean current between 240 ms and 265 ms during the voltage step to −20 mV. After establishing the whole cell recording configuration, Late INa activator is added to each well 4 times over a 15 minute period so that the late component of the Na current reaches a stable value. Compounds were then added (typically at 0.3 or 1 μM), in the presence of the Late INa activator, with 3 additions over the course of 5 minutes. Measurements were made at the end of exposure to the third compound addition and values were normalized to the current level when all Na^+ was removed from the extracellular solution after two additions of 0Na-ECF.
Results are reported as percent block of late INa and results were analyzed by incorporating rundown correction for the Late INa.

| Structure (SMILES) | Nav1.2 UDB 25 Hz 1 uM (hNaV1.2 (SCN2A); use-dependent block at 1 uM) | Nav1.2 UDB 25 Hz 10 uM (hNaV1.2 (SCN2A); use-dependent block at 10 uM) | inhibition at 1 µM (hNaV1.2 (SCN2A); use-dependent block at 1 uM) | inhibition at 10 µM (hNaV1.2 (SCN2A); use-dependent block at 10 uM) | inhibition at 1 µM [1] | Nav1.5 Late INa 1 uM ([1]; % inhibition (percent block of late INa) at 1 uM) |
| --- | --- | --- | --- | --- | --- | --- |
| COc1cc(OC(F)(F)F)ccc1-c1ccc2c(c1)CN(Cc1ncccn1)C(=O)O2 [Example 1, 6-(2-methoxy-4-(trifluoromethoxy)phenyl)-3-(pyrimidin-2-ylmethyl)-3,4-dihydro-2H-benzo[e][1,3]oxazin-2-one] | 7.9% | 37.0% |  |  |  |  |
| O=C1Oc2ccc(-c3ccc(C(F)(F)F)cc3)cc2CN1Cc1ccncc1 [Example 2, 3-(pyridin-4-ylmethyl)-6-(4-(trifluoromethyl)phenyl)-3,4-dihydro-2H-benzo[e][1,3]oxazin-2-one] |  |  | 19.8% | 28.1% | 41.5% |  |
| Cc1cc(-c2ccc3c(c2)CN(Cc2ncccn2)C(=O)O3)ccc1OC(F)(F)F [Example 5, 6-(3-methyl-4-(trifluoromethoxy)phenyl)-3-(pyrimidin-2-ylmethyl)-3,4-dihydro-2H-benzo[e][1,3]oxazin-2-one] |  |  | < 5% | 24.9% | 37.3% |  |
| O=C1Oc2ccc(-c3ccc(Cl)c(F)c3)cc2CN1Cc1ncccn1 [Example 6, 6-(4-chloro-3-fluorophenyl)-3-(pyrimidin-2-ylmethyl)-3,4-dihydro-2H-benzo[e][1,3]oxazin-2-one] |  |  |  |  | 43.3% |  |
| O=C1Oc2ccc(-c3ccc(OC(F)(F)F)cc3F)cc2CN1Cc1ncccn1 [Example 7, 6-(2-fluoro-4-(trifluoromethoxy)phenyl)-3-(pyrimidin-2-ylmethyl)-3,4-dihydro-2H-benzo[e][1,3]oxazin-2-one] |  |  | 18% | 56.3% | 42.3% |  |
| Cc1cc(OC(F)(F)F)ccc1-c1ccc2c(c1)CN(Cc1ncccn1)C(=O)O2 [Example 8, 6-(2-methyl-4-(trifluoromethoxy)phenyl)-3-(pyrimidin-2-ylmethyl)-3,4-dihydro-2H-benzo[e][1,3]oxazin-2-one] |  |  | < 5% | 11% | 52.7% |  |
| COc1cc(OC(F)(F)F)ccc1-c1ccc2c(c1)CN(Cc1ncccn1)C(=O)O2 [Example 9, 6-(2-methoxy-4-(trifluoromethoxy)phenyl)-3-(pyrimidin-2-ylmethyl)-3,4-dihydro-2H-benzo[e][1,3]oxazin-2-one] |  |  | 7.9% | 37% |  | 45.0% |
| O=C1Oc2ccc(-c3ccc(OC(F)(F)F)c(F)c3)cc2CN1Cc1ncccn1 [Example 10, 6-(3-fluoro-4-(trifluoromethoxy)phenyl)-3-(pyrimidin-2-ylmethyl)-3,4-dihydro-2H-benzo[e][1,3]oxazin-2-one] |  |  | 30.2% | 75% | 57.2% |  |
| CC1c2cc(-c3ccc(Cl)c(F)c3)ccc2OC(=O)N1Cc1ncccn1 (centres unmarked) [Example 11, 6-(4-chloro-3-fluorophenyl)-4-methyl-3-(pyrimidin-2-ylmethyl)-3,4-dihydro-2H-benzo[e][1,3]oxazin-2-one] |  |  | 29.9% | 77.2% | 32.5% |  |
| Cc1cnc(CN2Cc3cc(-c4ccc(OC(F)(F)F)cc4)ccc3OC2=O)nc1 [Example 12, 3-((5-methylpyrimidin-2-yl)methyl)-6-(4-(trifluoromethoxy)phenyl)-3,4-dihydro-2H-benzo[e][1,3]oxazin-2-one] |  |  | 15.4% | 68.8% | 50.5% |  |
| Cc1cnc(CN2Cc3cc(-c4ccc(C(F)(F)F)cc4)ccc3OC2=O)nc1 [Example 13, 3-((5-methylpyrimidin-2-yl)methyl)-6-(4-(trifluoromethyl)phenyl)-3,4-dihydro-2H-benzo[e][1,3]oxazin-2-one] |  |  | 21.4% | 63.4% | 49.6% |  |
| Cc1cnc(CN2Cc3cc(-c4ccc(OC(F)(F)F)cc4F)ccc3OC2=O)nc1 [Example 14, 6-(2-fluoro-4-(trifluoromethoxy)phenyl)-3-((5-methylpyrimidin-2-yl)methyl)-3,4-dihydro-2H-benzo[e][1,3]oxazin-2-one] |  |  | < 5% | 59.9% | 39.3% |  |
| O=C1Oc2ccc(-c3ccc(OC(F)(F)F)cc3)cc2CN1CCc1ncccn1 [Example 16, 3-(2-(pyrimidin-2-yl)ethyl)-6-(4-(trifluoromethoxy)phenyl)-3,4-dihydro-2H-benzo[e][1,3]oxazin-2-one] |  |  | 23.4% | 52.9% | 48.5% |  |
| O=C1Oc2ccc(-c3ccc(C(F)(F)F)cc3)cc2CN1CCc1ncccn1 [Example 17, 3-(2-(pyrimidin-2-yl)ethyl)-6-(4-(trifluoromethyl)phenyl)-3,4-dihydro-2H-benzo[e][1,3]oxazin-2-one] |  |  | 34.2% | 56.6% | 45% |  |
| CC1c2cc(-c3ccc(OC(F)(F)F)cc3)ccc2OC(=O)N1Cc1ncccn1 (centres unmarked) [Example 48, 4-methyl-3-(pyrimidin-2-ylmethyl)-6-(4-(trifluoromethoxy)phenyl)-3,4-dihydro-2H-benzo[e][1,3]oxazin-2-one] |  |  |  |  | 53.2% |  |
| CC1c2cc(-c3cccc(OC(F)(F)F)c3)ccc2OC(=O)N1Cc1ncccn1 (centres unmarked) [Example 50, 4-methyl-3-(pyrimidin-2-ylmethyl)-6-(3-(trifluoromethoxy)phenyl)-3,4-dihydro-2H-benzo[e][1,3]oxazin-2-one] |  |  |  |  | 34.9% |  |
